Reference: patent US20230167071A1, “COMPOUNDS WITH ANTIMALARIAL ACTIVITY” (UNIVERSITY OF PUERTO RICO, priority 2019, published 2023)

Assays:
PbGST = experiment: GST inhibition (CDNB/GSH) in crude P. berghei protein extract; assay type: biochemical, Plasmodium berghei; details: crude P. berghei protein extract, 0, 1, 10, and 50 μM
Method: Materials and methods. […] Parasite extracts were prepared and the pellets containing proteins were resuspended in buffer (3.5 mM MgCl2, 110 mM KCl, 40 mM NaCl, 20 mM HEPES, 6 mM EDTA, pH 7.4) with protease inhibitors (0.01 mg of leupeptin A, 0.001 mg of pepstatin A, 0.35 mg of PMSF). The parasite pellets were lysed by three freeze/thaw cycles (liquid nitrogen and 37° C. water bath) and protein content was determined using Bio-Rad DC Protein Assay. […] . The reaction was initiated by the addition of 1 mM GSH and the formation of S-(2,4-dinitrophenyl)glutathione was monitored spectrophotometrically at 340 nm (ε340 nm=0.0096 μM^−1cm^−1) using the SpectraMax M3 Microplate Reader (Molecular Devices).

[1] = system: P. falciparum multidrug-resistant Dd2 clone B2; experiment: In vitro susceptibility of P. falciparum, flow cytometry after 72 hours; assay type: cell-based, Plasmodium falciparum; details: P. falciparum Dd2 clone B2, 72 hours; read-out: EC50 (parasite growth)
Method: After 72 hours, parasite growth was assessed using flow cytometry on an Accuri C6 cytometer with parasites stained with SYBR green I and MitoTracker Deep Red. Compound CB-27 was tested in six independent experiments with technical replicates. The percentage of parasite growth was curve fitted against log-transformed drug concentrations and the EC50 was calculated using GraphPad Prism 6 software.

human placenta GST = target: T1, human placenta GST (Homo sapiens, UniProt P09211); experiment: GST inhibition, human placenta GST; assay type: biochemical; details: human placenta GST, 0, 1, 10, and 50 μM
T1 construct: from tissue; host or cells: human placenta
T1 sequence (P09211 2-210 limits assumed): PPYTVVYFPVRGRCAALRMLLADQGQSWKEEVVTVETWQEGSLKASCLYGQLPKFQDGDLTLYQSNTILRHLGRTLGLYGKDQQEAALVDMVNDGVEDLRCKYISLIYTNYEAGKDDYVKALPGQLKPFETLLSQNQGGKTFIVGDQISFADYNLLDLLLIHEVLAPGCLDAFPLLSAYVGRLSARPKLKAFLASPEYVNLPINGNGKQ

mouse erythrocytes = experiment: Red blood cell lysis assay; assay type: cell-based; details: mouse erythrocytes 1% hematocrit, 24 hours, 0.2-100× fold EC50
Source text: Materials and methods. Random-bred Swiss albino CD-1 female mice (Charles River Laboratories, Wilmington, Mass., USA) from 6-8 weeks old were used for the study. All mice procedures were approved by the Institutional Animal Care and Use Committee under the protocol number 2480108 at the AAALAC accredited University of Puerto Rico-Medical Sciences Campus Animal Resources Center. The mice work was done in strict accordance with the “Guide for the Care and Use of Laboratory Animals” (National-Research-Council, Current Edition) and regulations of the PHS Policy on Humane Care and Use of Laboratory Animals. Mice were acclimated for 1 week before initiation of experiments.
Compounds were analyzed at 10 serial dilutions using fresh mouse erythrocytes at 1% hematocrit in Dulbecco's PBS (Gibco®) in V-bottom microplates (Corning® 96 well TC-treated microplate). The plates were incubated for 24 hours at 37° C. followed by centrifugation at 2,000 rpm for 5 min, and 50 μl of supernatant was transferred to a fresh flat-bottom microplate (BD Falcon®). The amount of hemoglobin release in the supernatant was determined using the QuantiChrom™ Hemoglobin Assay Kit (DIHB-250; BioAssay Systems) by measuring the absorbance at 400 nm following the manufacturer's instructions. Saponin at 100 μg/ml was used as a positive control for 100% cell lysis, blood (1% hematocrit) with Dulbecco's Phosphate-Buffered Saline (DPBS) as a negative control for no cell lysis, and DPBS as a blank. Compounds were tested in three independent experiments in triplicate each.

EC50 [1] [nM] | inhibition of human GST activity (human placenta GST) | Structure (SMILES) | inhibition of PbGST activity (PbGST) | hemolysis (lytic activity) (mouse erythrocytes)
958 | does not inhibit | O=C(NN=Cc1c(O)ccc2ccccc12)c1nc(-c2ccccc2)cc(-c2ccccc2)n1 [CB-27] | concentration-dependent inhibition | did not hemolyze erythrocytes
 |  | COc1cccc(/C=N/NC(=O)c2nc(-c3ccccc3)cc(-c3ccccc3)n2)c1O [CB-41] |  | did not hemolyze erythrocytes
 |  | O=C(N/N=C/c1cc(Br)ccc1O)/C(=C/C=C/c1ccccc1)NC(=O)c1ccccc1 [CB-50] |  | did not hemolyze erythrocytes
 |  | O=C(N/N=C/c1ccccc1O)c1cc(-c2ccccc2)nc2ccccc12 [CB-53] |  | did not hemolyze erythrocytes
 |  | COc1cccc(C=NNC(=O)c2cc(-c3ccccc3)nc3ccccc23)c1O [CB-58] |  | did not hemolyze erythrocytes
 |  | O=C(Nc1cc(Cl)ccc1O)c1cc2nc(-c3ccccc3)cc(-c3ccccc3)n2n1 [CB-59] |  | did not hemolyze erythrocytes
 |  | O=C(N/N=C/c1c(O)ccc2ccccc12)c1cc([N+](=O)[O-])cc([N+](=O)[O-])c1 [CB-61] |  | did not hemolyze erythrocytes
